Data from PMC4503722, “Novel Phenotypic Outcomes Identified for a Public Collection of Approved Drugs from a Publicly Accessible Panel of Assays” (PLoS ONE, 2015).

Legend:
[1] = tested on: endothelial tube formation in co-cultures of ECFCs and ADSCs treated with VEGF; experiment: cells; assay type: cell-based, human
[2] = tested on: nuclear β-catenin in C2C12 cells; experiment: cells; assay type: cell-based; conditions: concentration response; for WntCondMedia_bCatenin C2C12 IC50/EC50: assay number 5
[3] = tested on: alkaline phosphatase (ALP) activity in C2C12 cells; assay type: cell-based; conditions: concentration response; for WntCondMedia_Alk Phos C2C12 IC50/EC50: assay number 6
[4] = tested on: HeLa cells; experiment: cells; assay type: cell-based; conditions: for Hela CellCycMod PI 2N IC50/EC50: assay number 14; for Hela CellCycMod PI 4N IC50/EC50: assay number 16; for Hela CellCycMod PI MI IC50/EC50: assay number 17; for Hela CellCycMod PI Cell Number IC50/EC50: assay number 18
[5] = tested on: DLD-1; experiment: cells; assay type: cell-based; conditions: for Basal_Viability ATP DLD-1 IC50/EC50: assay number 23
[6] = tested on: SW480; experiment: cells; assay type: cell-based; conditions: for Basal_Viability ATP SW480 IC50/EC50: assay number 24
[7] = tested on: HCT116; experiment: cells; assay type: cell-based; conditions: basal; for Basal_Viability ATP HCT116 IC50/EC50: assay number 25
[8] = tested on: HCT116 cells treated with a GSK3β inhibitor; experiment: cells; assay type: cell-based; conditions: for GSK3b inh pretreated_Viability ATP HCT116 IC50/EC50: assay number 26, GSK3b inhibitor pretreated
[9] = tested on: Colo320; experiment: cells; assay type: cell-based; conditions: for Basal_Viability ATP Colo 320 IC50/EC50: assay number 27
[10] = tested on: HT-29; experiment: cells; assay type: cell-based; conditions: for Basal_Viability ATP HT-29 IC50/EC50: assay number 28
[11] = tested on: RKO; experiment: cells; assay type: cell-based; conditions: for Basal_Viability ATP RKO IC50/EC50: assay number 29
[12] = tested on: SNU-C1; experiment: cells; assay type: cell-based; conditions: for Basal_Viability ATP SNU-C1 IC50/EC50: assay number 30
[13] = molecular target: T1, hp70S6K1 (RPS6KB1) (Homo sapiens, UniProt P23443); experiment: Cerep LANCE kinase assay hp70S6K1 (S1 assay 31); assay type: biochemical; conditions: for hp70S6K1 LANCE IC50/EC50: assay number 31
T1 construct: purchased Cerep (LANCE kinase assay platform, contract assay)
T1 sequence (P23443 whole entry): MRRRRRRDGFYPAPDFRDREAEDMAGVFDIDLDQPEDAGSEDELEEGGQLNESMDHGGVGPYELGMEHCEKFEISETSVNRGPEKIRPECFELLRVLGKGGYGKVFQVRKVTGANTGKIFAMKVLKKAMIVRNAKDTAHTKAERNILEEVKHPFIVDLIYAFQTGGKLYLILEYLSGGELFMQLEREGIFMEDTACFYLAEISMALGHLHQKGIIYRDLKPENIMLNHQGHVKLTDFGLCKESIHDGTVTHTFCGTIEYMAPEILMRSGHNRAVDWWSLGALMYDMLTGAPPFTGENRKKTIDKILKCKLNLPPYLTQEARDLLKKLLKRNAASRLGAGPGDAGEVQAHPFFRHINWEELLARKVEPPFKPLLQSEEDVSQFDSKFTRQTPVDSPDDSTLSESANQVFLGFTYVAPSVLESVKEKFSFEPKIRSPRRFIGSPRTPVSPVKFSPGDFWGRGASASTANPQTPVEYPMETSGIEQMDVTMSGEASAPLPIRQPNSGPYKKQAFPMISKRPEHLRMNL

[14] = molecular target: T2, hKDR (Homo sapiens, UniProt P35968); experiment: Cerep LANCE kinase assay hKDR (S1 assay 32); assay type: biochemical; conditions: for hKDR LANCE IC50/EC50: assay number 32
T2 construct: purchased Cerep (LANCE kinase assay platform, contract assay)
T2 sequence (P35968 20-1356): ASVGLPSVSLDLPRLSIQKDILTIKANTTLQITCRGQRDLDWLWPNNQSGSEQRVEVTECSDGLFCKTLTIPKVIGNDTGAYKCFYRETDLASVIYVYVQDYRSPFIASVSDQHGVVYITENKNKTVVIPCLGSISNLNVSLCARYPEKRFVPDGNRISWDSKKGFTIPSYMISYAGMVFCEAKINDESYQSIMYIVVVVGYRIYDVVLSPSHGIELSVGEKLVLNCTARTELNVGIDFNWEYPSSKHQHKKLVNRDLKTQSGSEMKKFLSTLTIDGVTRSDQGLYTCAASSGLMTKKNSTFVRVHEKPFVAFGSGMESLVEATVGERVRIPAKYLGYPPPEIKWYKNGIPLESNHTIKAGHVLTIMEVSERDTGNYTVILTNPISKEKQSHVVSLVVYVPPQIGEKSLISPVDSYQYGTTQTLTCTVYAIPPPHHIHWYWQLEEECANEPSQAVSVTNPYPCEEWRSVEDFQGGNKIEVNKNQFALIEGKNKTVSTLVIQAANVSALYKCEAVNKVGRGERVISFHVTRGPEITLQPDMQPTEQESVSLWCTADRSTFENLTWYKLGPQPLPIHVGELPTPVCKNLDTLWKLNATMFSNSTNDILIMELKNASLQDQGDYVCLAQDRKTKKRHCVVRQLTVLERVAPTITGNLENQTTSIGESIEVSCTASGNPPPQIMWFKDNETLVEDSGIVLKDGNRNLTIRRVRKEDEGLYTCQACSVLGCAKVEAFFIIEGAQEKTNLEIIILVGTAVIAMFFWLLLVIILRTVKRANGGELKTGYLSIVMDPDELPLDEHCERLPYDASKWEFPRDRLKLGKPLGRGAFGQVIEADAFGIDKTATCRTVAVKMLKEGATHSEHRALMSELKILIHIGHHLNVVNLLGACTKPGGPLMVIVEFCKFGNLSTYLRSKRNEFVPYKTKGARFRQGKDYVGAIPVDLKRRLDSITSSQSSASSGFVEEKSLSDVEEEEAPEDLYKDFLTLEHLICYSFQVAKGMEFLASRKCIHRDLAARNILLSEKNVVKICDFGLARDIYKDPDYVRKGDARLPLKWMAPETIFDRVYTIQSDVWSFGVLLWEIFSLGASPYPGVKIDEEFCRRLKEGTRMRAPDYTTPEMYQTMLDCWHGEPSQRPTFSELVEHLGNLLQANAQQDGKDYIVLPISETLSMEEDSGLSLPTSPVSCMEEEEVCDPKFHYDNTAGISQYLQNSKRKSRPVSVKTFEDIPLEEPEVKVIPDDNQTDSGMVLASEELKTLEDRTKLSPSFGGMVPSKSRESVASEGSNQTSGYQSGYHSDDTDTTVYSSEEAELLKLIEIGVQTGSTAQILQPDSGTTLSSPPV

[15] = molecular target: T3, hJAK2 (Homo sapiens, UniProt O60674); experiment: Cerep LANCE kinase assay hJAK2 (S1 assay 33); assay type: biochemical; conditions: for hJAK2 LANCE IC50/EC50: assay number 33
T3 construct: purchased Cerep (LANCE kinase assay platform, contract assay)
T3 sequence (O60674 whole entry): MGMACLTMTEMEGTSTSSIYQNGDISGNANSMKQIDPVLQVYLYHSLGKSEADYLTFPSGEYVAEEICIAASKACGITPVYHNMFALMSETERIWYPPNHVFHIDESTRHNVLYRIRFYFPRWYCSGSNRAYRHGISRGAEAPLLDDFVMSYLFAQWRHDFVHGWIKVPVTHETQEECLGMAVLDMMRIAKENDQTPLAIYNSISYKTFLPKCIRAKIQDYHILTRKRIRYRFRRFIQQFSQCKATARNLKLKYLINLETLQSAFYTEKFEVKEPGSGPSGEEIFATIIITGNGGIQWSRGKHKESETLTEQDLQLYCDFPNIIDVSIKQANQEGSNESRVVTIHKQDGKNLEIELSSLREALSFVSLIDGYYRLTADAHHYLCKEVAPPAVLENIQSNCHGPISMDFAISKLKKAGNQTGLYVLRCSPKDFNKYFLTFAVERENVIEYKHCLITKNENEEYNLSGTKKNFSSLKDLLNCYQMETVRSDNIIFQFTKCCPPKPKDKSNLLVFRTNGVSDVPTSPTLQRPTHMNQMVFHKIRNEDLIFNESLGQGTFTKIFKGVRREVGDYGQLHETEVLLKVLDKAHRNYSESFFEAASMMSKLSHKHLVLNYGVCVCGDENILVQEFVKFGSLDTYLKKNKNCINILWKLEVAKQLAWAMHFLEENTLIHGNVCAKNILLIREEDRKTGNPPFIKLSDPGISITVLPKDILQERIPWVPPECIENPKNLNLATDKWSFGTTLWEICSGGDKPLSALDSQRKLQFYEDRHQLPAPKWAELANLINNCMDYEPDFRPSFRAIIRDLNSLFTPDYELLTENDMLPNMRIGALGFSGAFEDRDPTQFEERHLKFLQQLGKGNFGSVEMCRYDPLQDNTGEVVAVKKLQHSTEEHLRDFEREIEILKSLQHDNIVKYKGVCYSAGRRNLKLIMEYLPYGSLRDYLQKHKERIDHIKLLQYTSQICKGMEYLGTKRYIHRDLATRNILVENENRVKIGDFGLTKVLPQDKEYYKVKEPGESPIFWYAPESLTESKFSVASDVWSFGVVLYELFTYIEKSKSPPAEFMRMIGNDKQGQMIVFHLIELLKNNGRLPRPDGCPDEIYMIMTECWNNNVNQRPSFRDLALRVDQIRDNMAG

[16] = molecular target: T4, hGSK3b (Homo sapiens, UniProt P49841); experiment: Cerep LANCE kinase assay hGSK3b (S1 assay 34); assay type: biochemical; conditions: for hGSK3b LANCE IC50/EC50: assay number 34
T4 construct: purchased Cerep (LANCE kinase assay platform, contract assay)
T4 sequence (P49841 whole entry): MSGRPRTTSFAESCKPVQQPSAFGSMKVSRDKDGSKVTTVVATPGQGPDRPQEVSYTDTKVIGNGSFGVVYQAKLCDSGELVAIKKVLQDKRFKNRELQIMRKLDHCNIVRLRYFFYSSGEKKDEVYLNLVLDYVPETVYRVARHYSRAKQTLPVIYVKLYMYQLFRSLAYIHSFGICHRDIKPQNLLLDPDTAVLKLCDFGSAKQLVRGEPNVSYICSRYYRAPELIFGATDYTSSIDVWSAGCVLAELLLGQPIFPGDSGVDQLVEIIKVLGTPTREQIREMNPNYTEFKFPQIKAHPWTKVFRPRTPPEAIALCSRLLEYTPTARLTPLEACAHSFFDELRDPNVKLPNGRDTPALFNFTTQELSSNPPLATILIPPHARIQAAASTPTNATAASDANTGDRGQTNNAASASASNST

[17] = molecular target: T5, hFLT3 (Homo sapiens, UniProt P36888); experiment: Cerep LANCE kinase assay hFLT3 (S1 assay 35); assay type: biochemical; conditions: for hFLT3 LANCE IC50/EC50: assay number 35
T5 construct: purchased Cerep (LANCE kinase assay platform, contract assay)
T5 sequence (P36888 27-993): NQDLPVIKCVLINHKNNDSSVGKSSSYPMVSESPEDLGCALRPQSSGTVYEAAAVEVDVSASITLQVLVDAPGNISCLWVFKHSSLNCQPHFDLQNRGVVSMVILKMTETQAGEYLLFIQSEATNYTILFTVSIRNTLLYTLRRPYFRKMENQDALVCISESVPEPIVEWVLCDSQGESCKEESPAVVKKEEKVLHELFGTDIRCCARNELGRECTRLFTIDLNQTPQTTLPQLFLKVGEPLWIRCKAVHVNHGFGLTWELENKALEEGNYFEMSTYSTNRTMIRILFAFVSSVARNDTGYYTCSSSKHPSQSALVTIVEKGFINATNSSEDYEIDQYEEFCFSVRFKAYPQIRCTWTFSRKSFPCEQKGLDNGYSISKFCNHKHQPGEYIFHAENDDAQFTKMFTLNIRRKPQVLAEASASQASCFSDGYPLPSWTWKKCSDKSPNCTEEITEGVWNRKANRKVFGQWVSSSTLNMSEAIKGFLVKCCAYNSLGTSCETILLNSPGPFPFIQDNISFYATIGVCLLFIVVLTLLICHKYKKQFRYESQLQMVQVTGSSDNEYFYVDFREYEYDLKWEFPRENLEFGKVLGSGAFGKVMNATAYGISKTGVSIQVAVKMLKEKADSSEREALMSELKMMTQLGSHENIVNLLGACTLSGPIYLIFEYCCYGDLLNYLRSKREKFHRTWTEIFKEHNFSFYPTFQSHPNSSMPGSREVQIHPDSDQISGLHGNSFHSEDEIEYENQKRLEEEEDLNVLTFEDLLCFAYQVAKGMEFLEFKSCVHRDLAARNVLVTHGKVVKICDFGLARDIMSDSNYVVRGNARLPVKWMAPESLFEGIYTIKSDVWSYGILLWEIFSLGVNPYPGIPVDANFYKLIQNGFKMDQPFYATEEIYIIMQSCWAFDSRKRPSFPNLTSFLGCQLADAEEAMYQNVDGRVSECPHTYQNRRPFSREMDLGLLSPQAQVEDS

[18] = tested on: ECFC/ADSC co-culture cell nuclei number

`O=c1c(-c2ccccc2)c1-c1ccccc1` [NCGC00166113-04] was tested. Which “IC50/EC50, VEGF_ADSC\ECFC Angio CD31 TubeArea (assay number 2)” value [1] did it give?
Its value is 3.8353 µM.

What about the “IC50/EC50, WntCondMedia_bCatenin C2C12 (assay number 5)” value [2] of the same molecule?
Its value is over 20 µM.

What about the “IC50/EC50, WntCondMedia_Alk Phos C2C12 (assay number 6)” value [3] of the same molecule?
Its value is 3.6201 µM.

What about the “IC50/EC50, Hela CellCycMod PI 2N (assay number 14)” value ([4]; 2N) of the same molecule?
The value was over 10 µM.

What about the “IC50/EC50, Hela CellCycMod PI 4N (assay number 16)” value ([4]; 4N) of the same molecule?
The value was over 10 µM.

And the “IC50/EC50, Hela CellCycMod PI Cell Number (assay number 18)” value ([4]; Cell Number)?
The value was 1.6859 µM.

What about the “IC50/EC50, Hela CellCycMod PI MI (assay number 17)” value ([4]; MI) of the same molecule?
Its value is over 10 µM.

What about the “IC50/EC50, Basal_Viability ATP DLD-1 (assay number 23)” value ([5]; basal) of the same molecule?
Its value is 4.208 µM.

What about the “IC50/EC50, Basal_Viability ATP SW480 (assay number 24)” value ([6]; basal) of the same molecule?
The value was over 20 µM.

And the “IC50/EC50, Basal_Viability ATP HCT116 (assay number 25)” value [7]?
The value was over 20 µM.

What about the “IC50/EC50, GSK3b inh pretreated_Viability ATP HCT116 (assay number 26)” value ([8]; GSK3b inh pretreated) of the same molecule?
The value was 7.707 µM.

What about the “IC50/EC50, Basal_Viability ATP Colo 320 (assay number 27)” value ([9]; basal) of the same molecule?
The value was 3.1012 µM.

What about the “IC50/EC50, Basal_Viability ATP HT-29 (assay number 28)” value ([10]; basal) of the same molecule?
Its value is over 20 µM.

And the “IC50/EC50, Basal_Viability ATP RKO (assay number 29)” value ([11]; basal)?
The value was over 20 µM.

And the “IC50/EC50, Basal_Viability ATP SNU-C1 (assay number 30)” value ([12]; basal)?
The value was over 20 µM.

What about the “IC50/EC50, hp70S6K1 LANCE (assay number 31)” value [13] of the same molecule?
Its value is over 20 µM.

What about the “IC50/EC50, hKDR LANCE (assay number 32)” value [14] of the same molecule?
Its value is over 20 µM.

And the “IC50/EC50, hJAK2 LANCE (assay number 33)” value [15]?
The value was over 20 µM.

And the “IC50/EC50, hGSK3b LANCE (assay number 34)” value [16]?
Its value is over 20 µM.

And the “IC50/EC50, hFLT3 LANCE (assay number 35)” value [17]?
Its value is over 20 µM.

What about the “IC50/EC50, VEGF_ADSC\ECFC Angio Hoechst NucArea (assay number 3)” value [18] of the same molecule?
Its value is 6.7548 µM.

Which results are given for `Cc1nc2ccc(CN(C)c3ccc(C(=O)N[C@@H](CCC(=O)O)C(=O)O)s3)cc2c(=O)[nH]1` [NCGC00229704-01]?
VEGF_ADSC\ECFC Angio CD31 TubeArea IC50/EC50 [1]: 0.3544 µM; WntCondMedia_bCatenin C2C12 IC50/EC50 [2]: 0.0127 µM; WntCondMedia_Alk Phos C2C12 IC50/EC50 [3]: 0.0042 µM; Hela CellCycMod PI 2N IC50/EC50 ([4]; 2N): > 10 µM; Hela CellCycMod PI 4N IC50/EC50 ([4]; 4N): > 10 µM; Hela CellCycMod PI MI IC50/EC50 ([4]; MI): > 10 µM; Hela CellCycMod PI Cell Number IC50/EC50 [4]: > 10 µM; Basal_Viability ATP DLD-1 IC50/EC50 [5]: > 20 µM; Basal_Viability ATP SW480 IC50/EC50 [6]: 0.001 µM; Basal_Viability ATP HCT116 IC50/EC50 [7]: 0.00424 µM; GSK3b inh pretreated_Viability ATP HCT116 IC50/EC50 [8]: 0.0023 µM; Basal_Viability ATP Colo 320 IC50/EC50 [9]: > 20 µM; Basal_Viability ATP HT-29 IC50/EC50 [10]: > 20 µM; Basal_Viability ATP RKO IC50/EC50 [11]: 0.00288 µM; Basal_Viability ATP SNU-C1 IC50/EC50 [12]: > 20 µM; hp70S6K1 LANCE IC50/EC50 [13]: > 20 µM; hKDR LANCE IC50/EC50 [14]: > 20 µM; hJAK2 LANCE IC50/EC50 [15]: > 20 µM; hGSK3b LANCE IC50/EC50 [16]: 3.99 µM; hFLT3 LANCE IC50/EC50 [17]: > 20 µM; VEGF_ADSC\ECFC Angio Hoechst NucArea IC50/EC50 [18]: > 10 µM

With `Cc1cc(=O)c2c(O)c3c(O)cc(=O)c4c3c3c(cc(O)c1c23)C(C)(C)C=4O` [NCGC00160275-03] as the molecule, how does the “VEGF_ADSC\ECFC Angio CD31 TubeArea IC50/EC50” value [1] read?
Its value is 0.1005 µM.

And the “WntCondMedia_bCatenin C2C12 IC50/EC50” value [2]?
The value was 1.0715 µM.

And the “WntCondMedia_Alk Phos C2C12 IC50/EC50” value [3]?
Its value is 2.9111 µM.

And the “Hela CellCycMod PI 2N IC50/EC50” value ([4]; 2N)?
Its value is over 10 µM.

And the “Hela CellCycMod PI S Phase IC50/EC50” value ([4]; assay number 15, S phase)?
The value was over 10 µM.

And the “Hela CellCycMod PI 4N IC50/EC50” value ([4]; 4N)?
The value was over 10 µM.

What about the “Hela CellCycMod PI MI IC50/EC50” value ([4]; MI) of the same molecule?
The value was over 10 µM.

And the “Hela CellCycMod PI Cell Number IC50/EC50” value [4]?
The value was 1.0003 µM.

What about the “Basal_Viability ATP DLD-1 IC50/EC50” value ([5]; basal) of the same molecule?
The value was 0.07089 µM.

What about the “Basal_Viability ATP SW480 IC50/EC50” value ([6]; basal) of the same molecule?
The value was 0.05797 µM.

And the “Basal_Viability ATP HCT116 IC50/EC50” value [7]?
The value was 0.07747 µM.

What about the “GSK3b inh pretreated_Viability ATP HCT116 IC50/EC50” value [8] of the same molecule?
The value was 0.05735 µM.

And the “Basal_Viability ATP Colo 320 IC50/EC50” value ([9]; basal)?
The value was 0.08199 µM.

And the “Basal_Viability ATP HT-29 IC50/EC50” value ([10]; basal)?
Its value is 3.006 µM.

What about the “Basal_Viability ATP RKO IC50/EC50” value ([11]; basal) of the same molecule?
Its value is 0.0754 µM.

What about the “Basal_Viability ATP SNU-C1 IC50/EC50” value ([12]; basal) of the same molecule?
Its value is 0.3321 µM.

And the “hp70S6K1 LANCE IC50/EC50” value [13]?
Its value is over 20 µM.

And the “hKDR LANCE IC50/EC50” value [14]?
The value was over 20 µM.

What about the “hJAK2 LANCE IC50/EC50” value [15] of the same molecule?
The value was over 20 µM.

What about the “hGSK3b LANCE IC50/EC50” value [16] of the same molecule?
Its value is 6.9 µM.

And the “hFLT3 LANCE IC50/EC50” value [17]?
The value was 1.97 µM.

What about the “VEGF_ADSC\ECFC Angio Hoechst NucArea IC50/EC50” value [18] of the same molecule?
The value was 2.074 µM.
